Measured values published in ChEMBL document CHEMBL1201862, “PubChem BioAssay data set” (2004).
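In this assay, cells in 96-well plates receive the compound at five concentrations for 48 hours. Endpoints are linearly interpolated between the surrounding concentrations. GI50 = concentration required for 50% inhibition of growth.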 Active and inactive are the calls of the source. No stated cut-off is given here; in the data, active = GI50 up to about 1.1 µM and inactive = higher.

Columns and labels:
Test in all cases: inhibition of tumour cell growth, NCI panel, 48 h
OVCAR-5 = tested on: OVCAR-5
PC-3 = tested on: PC-3
SK-MEL-28 = tested on: SK-MEL-28
DU-145 = tested on: DU-145
SK-MEL-2 = tested on: SK-MEL-2
BT-549 = tested on: BT-549
SK-OV-3 = tested on: SK-OV-3
786-0 = tested on: 786-0
MDA-N = tested on: MDA-N
UO-31 = tested on: UO-31
HOP-62 = tested on: HOP-62
A498 = tested on: A498
Malme-3M = tested on: Malme-3M
HT-29 = tested on: HT-29
RXF 393 = tested on: RXF 393
K562 = tested on: K562
SF-268 = tested on: SF-268
KM12 = tested on: KM12
OVCAR-4 = tested on: OVCAR-4
CCRF-CEM = tested on: CCRF-CEM

Measured: GI50

N/C(=N\c1ccc(Cl)cc1)NS(=O)(=O)c1ccc(S(=O)(=O)c2ccccc2)s1
inactive: OVCAR-5 31.9 µM | PC-3 14.2 µM | SK-MEL-28 19.7 µM | DU-145 21.5 µM | SK-MEL-2 14.1 µM | BT-549 17.6 µM | SK-OV-3 38.7 µM | 786-0 19.9 µM | MDA-N 18.5 µM | UO-31 16.6 µM | HOP-62 18.1 µM | A498 17.4 µM | Malme-3M 20 µM | HT-29 21.7 µM | RXF 393 53.8 µM | K562 18.8 µM | SF-268 19.4 µM | KM12 22.8 µM | OVCAR-4 17.5 µM

CSc1ncc2c(C#N)c3sc4ccccc4n3c(=O)c2n1
inactive: OVCAR-5 > 100 µM | PC-3 > 100 µM | SK-MEL-28 > 100 µM | DU-145 > 100 µM | SK-MEL-2 > 100 µM | BT-549 > 100 µM | SK-OV-3 80.7 µM | 786-0 41.8 µM | MDA-N > 100 µM | UO-31 > 100 µM | HOP-62 30.4 µM | A498 > 100 µM | Malme-3M > 100 µM | CCRF-CEM > 100 µM | HT-29 > 100 µM | RXF 393 > 100 µM | K562 > 100 µM | SF-268 16.1 µM | KM12 54.2 µM | OVCAR-4 45.8 µM

CCOC(CI)O[C@@H]1C=C[C@H](OC(C)=O)C1 (stereo not given in full)
inactive: OVCAR-5 > 100 µM | PC-3 > 100 µM | SK-MEL-28 > 100 µM | DU-145 > 100 µM | SK-MEL-2 > 100 µM | BT-549 > 100 µM | SK-OV-3 > 100 µM | 786-0 > 100 µM | MDA-N > 100 µM | UO-31 > 100 µM | HOP-62 84.7 µM | A498 > 100 µM | Malme-3M > 100 µM | CCRF-CEM > 100 µM | HT-29 > 100 µM | RXF 393 > 100 µM | K562 > 100 µM | SF-268 > 100 µM | KM12 30.1 µM | OVCAR-4 > 100 µM

COc1cc2c(cc1C)NC(=O)/C2=C/c1c(Cl)n(-c2ccccc2)c2ccccc12
inactive: OVCAR-5 29.5 µM | PC-3 4.41 µM | SK-MEL-28 21.8 µM | DU-145 31.8 µM | SK-MEL-2 11.4 µM | BT-549 17.3 µM | SK-OV-3 24.4 µM | 786-0 15.3 µM | MDA-N 15.1 µM | UO-31 49.2 µM | HOP-62 19.4 µM | A498 32.8 µM | Malme-3M 18.4 µM | CCRF-CEM 4.42 µM | HT-29 5.25 µM | RXF 393 11.2 µM | K562 6.46 µM | SF-268 20.6 µM | KM12 7.31 µM

C[C@@H]1C(=O)O[C@H]1[C@H](O)CO
inactive: OVCAR-5 > 100 µM | PC-3 > 100 µM | SK-MEL-28 > 100 µM | DU-145 > 100 µM | SK-MEL-2 > 100 µM | BT-549 > 100 µM | SK-OV-3 > 100 µM | 786-0 > 100 µM | MDA-N > 100 µM | UO-31 > 10 µM | HOP-62 > 100 µM | A498 > 100 µM | CCRF-CEM > 100 µM | RXF 393 > 100 µM | KM12 > 100 µM | OVCAR-4 > 100 µM

CC(C)CC1c2[nH]c3ccccc3c2C[C@H]2C(=O)NC(CCC(=O)OC(C)(C)C)C(=O)N12 (stereo not given in full)
inactive: OVCAR-5 34.3 µM | PC-3 23.4 µM | SK-MEL-28 52.1 µM | DU-145 47.1 µM | SK-MEL-2 18.4 µM | BT-549 33.5 µM | SK-OV-3 42.5 µM | 786-0 43 µM | MDA-N 30.7 µM | UO-31 33 µM | HOP-62 23 µM | A498 40.4 µM | Malme-3M 24.4 µM | HT-29 21.1 µM | RXF 393 19.1 µM | K562 36.9 µM | SF-268 27.4 µM | KM12 40.6 µM | OVCAR-4 37.3 µM

CCCCCCCCCCCCCCCCOP(=O)([O-])OCC[N+](C)(C)C [MILTEFOSINE]
inactive: OVCAR-5 8.17 µM | PC-3 1.56 µM | SK-MEL-28 27.9 µM | DU-145 19.4 µM | SK-MEL-2 21 µM | BT-549 5.35 µM | SK-OV-3 8.91 µM | 786-0 9.55 µM | MDA-N 25.1 µM | UO-31 20.6 µM | HOP-62 14.9 µM | A498 12.9 µM | Malme-3M 21.8 µM | HT-29 7.8 µM | RXF 393 5.9 µM | K562 39 µM | SF-268 22.1 µM | KM12 2.74 µM | OVCAR-4 18.2 µM

O=C(O)CC12CC3CC(CC(O)(C3)C1)C2
inactive: OVCAR-5 > 100 µM | PC-3 > 100 µM | SK-MEL-28 > 100 µM | DU-145 > 100 µM | SK-MEL-2 > 100 µM | BT-549 > 100 µM | SK-OV-3 > 100 µM | 786-0 > 100 µM | MDA-N > 100 µM | UO-31 > 100 µM | HOP-62 > 100 µM | A498 > 100 µM | Malme-3M 34.7 µM | HT-29 > 100 µM | RXF 393 > 100 µM | K562 > 100 µM | SF-268 31 µM | KM12 > 100 µM | OVCAR-4 > 100 µM

CC(=O)OCc1cn(S(=O)(=O)c2ccc(C)cc2)cn1
inactive: PC-3 > 100 µM | SK-MEL-28 > 100 µM | DU-145 > 100 µM | BT-549 > 100 µM | SK-OV-3 > 100 µM | 786-0 > 100 µM | MDA-N 12.5 µM | UO-31 > 100 µM | HOP-62 > 100 µM | A498 > 100 µM | Malme-3M > 100 µM | CCRF-CEM 26.7 µM | HT-29 20.7 µM | RXF 393 > 100 µM | K562 > 100 µM | SF-268 37.2 µM | OVCAR-4 > 100 µM

CC(=O)OCC1OC(c2nnc(C)o2)=CC(OC(C)=O)C1OC(C)=O (stereo not given)
inactive: OVCAR-5 > 100 µM | PC-3 > 100 µM | SK-MEL-28 > 100 µM | DU-145 > 100 µM | BT-549 > 100 µM | 786-0 > 100 µM | MDA-N > 100 µM | UO-31 > 100 µM | HOP-62 > 100 µM | A498 > 100 µM | Malme-3M > 100 µM | CCRF-CEM > 100 µM | HT-29 > 100 µM | RXF 393 > 100 µM | K562 > 100 µM | SF-268 > 100 µM | KM12 > 100 µM | OVCAR-4 > 100 µM

O=C1C[C@H](CCC(=O)OCc2ccccc2)NC(=O)C[C@H](CCC(=O)OCc2ccccc2)NC(=O)C[C@H](CCC(=O)OCc2ccccc2)N1
inactive: OVCAR-5 > 100 µM | PC-3 > 100 µM | SK-MEL-28 > 100 µM | DU-145 > 100 µM | SK-MEL-2 17.1 µM | BT-549 24.3 µM | SK-OV-3 5.92 µM | 786-0 8.15 µM | MDA-N > 100 µM | UO-31 > 100 µM | HOP-62 16.2 µM | A498 7.57 µM | Malme-3M > 100 µM | CCRF-CEM > 100 µM | HT-29 > 100 µM | RXF 393 2.36 µM | K562 > 100 µM | KM12 > 100 µM | OVCAR-4 > 100 µM
